In the NIST ThermoML archive (doi:10.1016/j.fluid.2013.07.008):

Assay: xn = mol fraction of the nth substance listed
Settings: Capillary rise

C [methane] + CC
x1 = 1
Settings	surface tension liquid-gas [mN/m]
93.15 K	16.69
133.15 K	8.78
173.15 K	2

CC [ethane] + C
Settings	surface tension liquid-gas [mN/m]
93.15 K, x2 = 0	32.9
133.15 K, x2 = 0	25.32
133.15 K, x2 = 0.194	20.74
133.15 K, x2 = 0.414	16.34
133.15 K, x2 = 0.527	14.45
133.15 K, x2 = 0.821	10.78
173.15 K, x2 = 0	18.26
173.15 K, x2 = 0.133	15.59
173.15 K, x2 = 0.139	15.37
173.15 K, x2 = 0.256	12.87
173.15 K, x2 = 0.421	9.8
173.15 K, x2 = 0.429	9.6
173.15 K, x2 = 0.459	9.07
173.15 K, x2 = 0.565	7.67
173.15 K, x2 = 0.587	7.14
173.15 K, x2 = 0.684	5.98
173.15 K, x2 = 0.691	5.79
173.15 K, x2 = 0.793	4.51
173.15 K, x2 = 0.818	4.29
173.15 K, x2 = 0.821	4.25
193.15 K, x2 = 0	15.01
193.15 K, x2 = 0.134	12.26
193.15 K, x2 = 0.16	11.62
193.15 K, x2 = 0.284	9.34
193.15 K, x2 = 0.287	9.07
193.15 K, x2 = 0.395	7.34
193.15 K, x2 = 0.501	5.47
193.15 K, x2 = 0.672	3.49
193.15 K, x2 = 0.685	3.23
213.15 K, x2 = 0	11.79
213.15 K, x2 = 0.024	11.22
213.15 K, x2 = 0.116	9.57
213.15 K, x2 = 0.17	8.6
213.15 K, x2 = 0.238	7.28
213.15 K, x2 = 0.447	4.11
213.15 K, x2 = 0.539	2.71
233.15 K, x2 = 0	8.77
233.15 K, x2 = 0.075	7.19
233.15 K, x2 = 0.143	6.06
233.15 K, x2 = 0.153	5.89
233.15 K, x2 = 0.214	4.93
233.15 K, x2 = 0.228	4.7
233.15 K, x2 = 0.292	3.63
233.15 K, x2 = 0.297	3.55
233.15 K, x2 = 0.362	2.74
233.15 K, x2 = 0.369	2.58
253.15 K, x2 = 0	5.77
253.15 K, x2 = 0.048	5.17
253.15 K, x2 = 0.099	4.4
253.15 K, x2 = 0.145	3.73
253.15 K, x2 = 0.196	2.98
253.15 K, x2 = 0.241	2.34
253.15 K, x2 = 0.242	2.28
263.15 K, x2 = 0	4.48
263.15 K, x2 = 0.048	3.82
263.15 K, x2 = 0.098	3.15
263.15 K, x2 = 0.142	2.58
263.15 K, x2 = 0.185	2.03
273.15 K, x2 = 0	3.2
273.15 K, x2 = 0.035	2.76
273.15 K, x2 = 0.083	2.19
273.15 K, x2 = 0.124	1.75
283.15 K, x2 = 0	1.96
283.15 K, x2 = 0.017	1.82
283.15 K, x2 = 0.045	1.5
283.15 K, x2 = 0.065	1.33
283.15 K, x2 = 0.067	1.29
